What was measured:
Type in all cases: in vivo
[1] = test system: myelin basic protein (MBP); test: myelin gene expression in brain samples (QuantSeq 3′ mRNA-Seq), MBP; settings: mice receiving milk without 6′SL, fold change relative to control mice receiving milk with 6′SL; FIG. 4
Text: (§1) Adult wild-type (WT) B6.129 and heterozygous (HZ) B6.129-St6gal1^tm2Jxm breeding pairs (four males and four females and three males and four females, respectively) were purchased from a commercial breeder (The Jackson Laboratory). Upon arrival, same-sex mice were housed in same-sex groups of 2-3 in type-1 polycarbonate cages (33.0×13.0×14.0 cm) equipped with sawdust bedding, an enrichment bag (Mucedola, Settimo Milanese, Italy), metal top and ad libitum water and food pellets (Mucedola, Settimo Milanese, Italy). Mice were maintained on a reversed 12-h-light-dark cycle (light on at 7:00 PM) in an air-conditioned room (temperature 21±1C and relative humidity 60±10%). Two weeks after arrival, breeding triads (one male, two females) were formed. After two weeks of mating, male mice were removed and females were housed individually in standard type-1 cages. […]
(§2) Total RNA is extracted using the Agencourt RNAdvance Tissue Kit (Beckman Coulter): Lysis was done in 450 μL. […] Elution volume 50 μL Quantification is performed using Quant It Ribogreen assay (Life Technologies) QC assessment is performed using Standard sensitivity RNA kit on Fragment Analyzer 96 (Agilent). […]
(§3) Library generation starts with oligodT priming containing the Illumina-specific Read 2 linker sequence. […] The random primer contains the Illumina-specific Read 1linker sequence. […]

[2] = test system: myelin-associated glycoprotein (MAG); test: myelin gene expression in brain samples (QuantSeq 3′ mRNA-Seq), MAG; settings: mice receiving milk without 6′SL, fold change relative to control mice receiving milk with 6′SL; FIG. 4
Text: as §1, §2, §3

[3] = test system: genes related to myelination; myelination and myelin sheath pathway; test: expression of myelination-related genes and KEGG pathways in brain samples; settings: mice receiving milk without 6′SL
Text: Adult wild-type (WT) B6.129 and heterozygous (HZ) B6.129-St6gal1^tm2Jxm breeding pairs (four males and four females and three males and four females, respectively) were purchased from a commercial breeder (The Jackson Laboratory). Upon arrival, same-sex mice were housed in same-sex groups of 2-3 in type-1 polycarbonate cages (33.0×13.0×14.0 cm) equipped with sawdust bedding, an enrichment bag (Mucedola, Settimo Milanese, Italy), metal top and ad libitum water and food pellets (Mucedola, Settimo Milanese, Italy). Mice were maintained on a reversed 12-h-light-dark cycle (light on at 7:00 PM) in an air-conditioned room (temperature 21±1C and relative humidity 60±10%). Two weeks after arrival, breeding triads (one male, two females) were formed. After two weeks of mating, male mice were removed and females were housed individually in standard type-1 cages. Females were checked daily for delivery and the day in which they gave birth was designated as postnatal day (PND) 0. Apart from cage cleaning once a week, dams and their offspring were kept undisturbed until weaning (on PND 25). At weaning, male and female mice were separated and located in same-sex same-litter cages; additionally, male mice were marked through ear clipping and the ear tissue removed through this procedure was used for genotyping. Homozygous knock-out (KO) and WT mice were then used for the experiments.
Fourteen wild type (WT) and 14 St6Gal1 Homozygous (hereafter KO) female mice have been mated with seven WT and seven KO male mice respectively. Out of this batch, 10 WT and 10 KO dams gave birth to a viable offspring. […]
as §2, §3

CC(=O)N[C@H]1[C@H]([C@H](O)[C@H](O)CO)O[C@@](OC[C@H]2O[C@@H](O[C@H]3[C@H](O)[C@@H](O)C(O)O[C@@H]3CO)[C@H](O)[C@@H](O)[C@H]2O)(C(=O)O)C[C@@H]1O (stereo partly drawn) [6′SL, (6R)-5-Acetamido-3,5-dideoxy-6-[(1R,2R)-1,2,3-trihydroxypropyl]-β-L-threo-hex-2-ulopyranonosyl-(2->6)-β-D-galactopyranosyl-(1->4)-D-glucopyranose]
reduction of the expression of myelin basic protein (MBP) [1]: 50%
reduction of the expression of myelin-associated glycoprotein (MAG) [2]: 50%
expression of multiple genes related to myelination ([3]; adulthood, and hippocampus at both ages): neither observed
KEGG myelination and myelin sheath pathway ([3]; only in prefrontal cortex during early life): down-regulated
expression of multiple genes related to myelination ([3]; prefrontal cortex during early life): reduced

Reference: patent US20220225627A1, “A NUTRITIONAL COMPOSITION FOR USE TO ENHANCE EXECUTIVE FUNCTION” (SOCIETE DES PRODUITS NESTLE S.A., priority 2019, published 2022)
